# Test results published in patent US20040076968A1, “Method for detecting pre-disposition to hepatotoxicity” (priority 2000, published 2004).
# Columns and labels:
# [1] = system: UGT1A gene 3′UTR (exon 5); assay: Association of the UGT1A 3′UTR polymorphism with liver function abnormality in tolcapone-treated patients (case-control genotyping); type: in vivo, human; conditions: UGT1A-3′_908
# Procedure: Disease severity had already been controlled for by the original study inclusion criteria.
# In the KTC format, the generation of double-stranded amplification product is monitored using a DNA intercalating dye and a thermal cycler which has a fluorescence-detecting CCD camera attached (PE-Bipsystems GeneAmp 5700 Sequence Detection System). Fluorescence in each well of the PCR amplification plate is measured at each cycle of annealing and denaturation. The cycle at which the relative fluorescence reached a threshold of 0.5 using the SDS sofiware from PE-Biosystems was defined as the Ct.
# The amplification reactions were designed to be allele-specific, so that the amplification reaction was positive if the polymorphism was present and the amplification reaction was negative if the polymorphism was absent. For each bi-allelic polymorphism, one well of the amplification plate was set up to be specific for allele 1 and a second well was set up to be specific for allele 2. For each polymorphism to be detected, three primers were designed—two allele-specific primers and one common primer (Table 3). Reactions for allele 1 contained allele 1-specific primer and the common primer and reactions for allele 2 contained allele 2-specific primer and the common primer.
# The Ct of each amplification reaction was determined and the difference between the Ct for allele 1 and allele 2 (delta Ct) was, used as the assay result. Samples with delta Cts between −3.0 and 3.0 were considered heterozygous (A1/A2). Samples with delta Cts below −3.0 were considered homozygous for A1 (A1/A1); samples with delta Cts above 3.0 were considered homozygous for A2 (A2/A2).
# The patient samples were divided into two groups.
# For each genotype, the following analyses were performed:
# a) Analysis of the entire genotype: patients were classified according to the following three categories: homozygous 1/1 (two copies of allele 1 and no copies of allele 2), heterozygous 1/2 (one copy of allele 1 and one copy of allele 2) or homozygous 2/2 (no copies of allele 1 and two copies of allele 2). Analysis was conducted to assess whether there were differences in the proportion of case patients in each of these groups, compared with the proportion of control patients. The Cochran-Maentel-Hanszel (CMH) test was applied to the data presented in a 2-by-3 table (the two columns indicating presence or absence of liver function abnormality and the three rows indicating the three categories of the genotype).
# b) Analysis of alleles: the presence of allele 1 or 2 in case patients was compared to the presence of the respective allele in the control patients.
# c) Analysis of allele counts: this analysis was conducted to compare the distribution of the alleles in patients with liver function abnormality to that of patients without abnormality. The total number of copies of allele 1 among patients with liver function abnormality was compared with the total number of copies of allele 2 among these case patients. The CMH test was applied to the data using a 2-by-2 table (the two columns indicating presence or absence of liver function abnormality and the two rows indicating the two allele counts).
# All markers showing significant association to elevated liver transaminases corresponded to SNPs in the UGT1 genes.
# [2] = system: rat hepatotocyte cultures; assay: Cytotoxicity in rat hepatocyte cultures; type: cell-based; conditions: in vitro
compound,measurement,setting,value
Cc1ccc(C(=O)c2cc(O)c(O)c([N+](=O)[O-])c2)cc1 [tolcapone],n (%) of patients,"[1]; Allele C Absent, Liver Function Abnormality Absent",14 (5.1%)
same,n (%) of patients,"[1]; Allele C Absent, Liver Function Abnormality Present",4 (3.0%)
same,n (%) of patients,"[1]; Allele C Present, Liver Function Abnormality Absent",260 (94.9%)
same,n (%) of patients,"[1]; Allele C Present, Liver Function Abnormality Present",131 (97.0%)
same,n (%) of patients,"[1]; Allele G Absent, Liver Function Abnormality Absent",163 (59.5%)
same,n (%) of patients,"[1]; Allele G Absent, Liver Function Abnormality Present",101 (74.8%)
same,n (%) of patients,"[1]; Allele G Present, Liver Function Abnormality Absent",111 (40.5%)
same,n (%) of patients,"[1]; Allele G Present, Liver Function Abnormality Present",34 (25.2%)
same,n (%) of allele copies,"[1]; Count Allele C, Liver Function Abnormality Absent",423 (77.2%)
same,n (%) of allele copies,"[1]; Count Allele C, Liver Function Abnormality Present",232 (85.9%)
same,n (%) of allele copies,"[1]; Count Allele G, Liver Function Abnormality Absent",125 (22.8%)
same,n (%) of allele copies,"[1]; Count Allele G, Liver Function Abnormality Present",38 (14.1%)
same,n (%) of patients,"[1]; Genotype Heterozygous G/C, Liver Function Abnormality Absent",97 (35.4%)
same,n (%) of patients,"[1]; Genotype Heterozygous G/C, Liver Function Abnormality Present",30 (22.2%)
same,n (%) of patients,"[1]; Genotype Homozygous C/C, Liver Function Abnormality Absent",163 (59.5%)
same,n (%) of patients,"[1]; Genotype Homozygous C/C, Liver Function Abnormality Present",101 (74.8%)
same,n (%) of patients,"[1]; Genotype Homozygous G/G, Liver Function Abnormality Absent",14 (5.1%)
same,n (%) of patients,"[1]; Genotype Homozygous G/G, Liver Function Abnormality Present",4 (3.0%)
same,cytotoxicity on inhibition of glucuronidation and oxidation,[2],increase cytotoxicity
